Assay: log Kow (penetration ability) of test molecules
Type: physicochemical
Method: A water suspension of liposomes was prepared with 1.5% of hydrophilic molecule A or 300 ppm (0.03%) hydrophilic molecule B, and 27% Pro-Lipo™ Neo. […] Molecule B was a hexapeptide (hexapeptide-38) with a molecular weight of (870 g/mol) and a penetration ability log Kow of −1.13. A water solution with 1.5% A or 300 ppm B was used as a control (non-entrapped molecule).

Q: For `Cn1c(=O)c2c(ncn2C)n(C)c1=O` [Molecule A, caffeine], which “penetration ability log Kow” value is on record?
A: Its value is −0.07.

Q: For hexapeptide-38 [Molecule B], which “penetration ability log Kow” value is on record?
A: Its value is −1.13.

— US12053547B2, “Liposomal compositions and methods of use” (Alastin Skincare, Inc., priority 2018, dated 2024)
